The subject of one experiment is H37Rv Mtb. In words: MIC against replicating H37Rv Mtb in GAS and 7H12 media. Format: cell-based, Mycobacterium tuberculosis. The note with it: for MIC: Mycobacterium tuberculosis, H37RV, read-out: MIC mean +/- against replicating Mtb in medium: GAS (μg/mL), GAS medium, H37Rv, recalculated from μM.
In the next experiment the test system is Mycobacterium kansasii. Briefly: MIC against non-tubercular mycobacteria: M. kansasii. Format: cell-based.
In another experiment the test system is Mycobacterium bovis BCG. Briefly: MIC against non-tubercular mycobacteria: M. bovis BCG. The note with it: Mycobacterium tuberculosis variant bovis BCG. Format: cell-based.
The subject of another experiment is Mycobacterium avium. Briefly: MIC against non-tubercular mycobacteria: M. avium. Format: cell-based.

Each structure is given as a SMILES string. In brackets after ≈: the same amount, converted by molar mass.

Consider `Cc1cnc2nc(C)c(C(=O)NCc3ccccc3)n2c1` [Compound 6, N-benzyl-2,6-dimethylimidazo[1,2-a]pyrimidine-3-carboxamide], for which the MIC was 0.36 ± 0.06 µg/mL (≈ 1.28 µM) in the experiment with H37Rv Mtb, 19 µM (≈ 5.33 µg/mL) in the experiment with Mycobacterium kansasii and 8 µM (≈ 2.24 µg/mL) against Mycobacterium bovis BCG.

Regarding `Cc1ccn2c(C(=O)NCc3ccccc3)nnc2c1` [Compound 10, N-benzyl-7-methyl-[1,2,4]triazolo[4,3-a]pyridine-3-carboxamide], the “negative effect on potency relative to compound 2” value with H37Rv Mtb (GAS medium, MIC of 0.1 and 101 μM) amounted to 1000 x. Besides, the MIC with H37Rv Mtb is 27 ± 1.6 µg/mL (≈ 101 µM).

For `Cc1ccn2c(C)c(C(=O)NCc3ccccc3)nc2c1` [Compound 12, N-benzyl-3,7-dimethylimidazo[1,2-a]pyridine-2-carboxamide], the MIC in the experiment with H37Rv Mtb was 19.6 ± 2.5 µg/mL (≈ 70.2 µM).

On to `Cc1ccc2c(C(=O)NCc3ccccc3)c(C)[nH]c2c1` [Compound 8, N-Benzyl-2,6-dimethyl-1H-indole-3-carboxamide], for which, in the experiment on H37Rv Mtb, the MIC was 12.2 ± 0.3 µg/mL (≈ 43.8 µM).

As to `Cc1ccc2nc(C)c(C(=O)NCc3ccccc3)n2c1` [Compound 2], the MIC in the experiment with H37Rv Mtb is 0.031 ± 0.002 µg/mL (≈ 0.111 µM); against Mycobacterium avium, 16 µM (≈ 4.47 µg/mL); against Mycobacterium bovis BCG it was 1 µM (≈ 0.279 µg/mL).

For the compound `Cc1ccn2c(C(=O)NCc3ccccc3)c(C)nc2c1` [Compound 1, N-benzyl-2,7-dimethyl-imidazo[1,2-a]pyridine-3-carboxamide], the “times more potent than 12” value in the experiment with H37Rv Mtb (MIC's of 0.2 and 70 μM) is given as 350 times.

Take `Cc1cc(C)n2nc(C(=O)NCc3ccccc3)nc2n1` [Compound 11, N-benzyl-5,7-dimethyl-[1,2,4]triazolo[1,5-a]pyrimidine-2-carboxamide]: the MIC with H37Rv Mtb is 35.4 ± 0.8 µg/mL (≈ 126 µM).

With `Cc1ccc2c(C(=O)NCc3ccccc3)n[nH]c2c1` [Compound 9, N-benzyl-6-methyl-1H-indazole-3-carboxamide], in the experiment with H37Rv Mtb, the MIC is 10.8 ± 0.9 µg/mL (≈ 40.7 µM).

On to `Cc1ccc2nc(C)c(C(=O)NCc3ccccc3)n2n1` [Compound 7, N-benzyl-2,6-dimethylimidazo[1,2-b]pyridazine-3-carboxamide], for which, in the experiment on H37Rv Mtb, the MIC is 17.9 ± 0.5 µg/mL (≈ 63.9 µM).

The record behind these values is paper PMC4096046 (Bioorganic & medicinal chemistry letters, 2014).
